Some test systems named below: NCI-H522 lung; MDA-MB-231 breast; SR leukemia; KM12 colon; 786-0 renal; MDA-N; BT-549 breast; HS 578T breast; MDA-MB-435; DMS 114 small cell lung; M19-MEL melanoma.
What all share (assay): NCI anticancer screen, dose series, 48 h

Several values for one entry are separate records, joined by “and”; a condition that tells them apart may be missing. Equal entries are not always repeated.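 Growth conditions: 96-well plates. Treatment: test compound, 48 hours, 5 concentrations. Analysis: linear interpolation between bracketing concentrations; unreached endpoints set to highest concentration. Here, GI50 denotes the concentration required for 50% inhibition of growth. TGI denotes the concentration required for complete inhibition of growth.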 A value given as a limit tells only on which side of the number the result lay.

For the molecule `CCCCCCCCCCCCCC1=C(O)C(=O)C(CC2=C(O)C(=O)C(CCCCCCCCCCCCC)=C(O)C2=O)=C(O)C1=O`, the TGI in the experiment on NCI-H522 lung, in the experiment on MDA-MB-231 breast, in the experiment on SR leukemia, with KM12 colon, in the experiment on 786-0 renal and in the experiment on MDA-N was above 100 µM throughout. Moreover, the TGI in the experiment with BT-549 breast and with HS 578T breast was above 100 µM each time.
As for `CC[C@@]1(O)C(=O)OCc2c1cc1n(c2=O)Cc2cc3ccccc3nc2-1`, the TGI worked out at 0.596 µM with NCI-H522 lung; 0.0769 µM in the experiment on SR leukemia; 5.61 µM in the experiment with KM12 colon; 0.285 µM in the experiment with MDA-MB-435; 3.27 µM in the experiment with DMS 114 small cell lung; 1.35 µM in the experiment on M19-MEL melanoma. Moreover, the TGI was 2.6 µM in the experiment on BT-549 breast and above 100 µM in the experiment on HS 578T breast. Besides, in the experiment with KM12 colon, the GI50 is 0.292 µM.
As to `Nc1[nH]c(=S)nc2nc3c(c(-c4ccccc4)c12)CCCC3`, the TGI with MDA-MB-231 breast, in the experiment on SR leukemia, in the experiment on KM12 colon, with MDA-MB-435, with MDA-N and with BT-549 breast was above 100 µM throughout. The molecule further yielded a TGI in the experiment with HS 578T breast above 100 µM.
As to `COc1ccccc1CC(C)N` (configuration not stated), the TGI in the experiment on NCI-H522 lung, with KM12 colon, with DMS 114 small cell lung and in the experiment with 786-0 renal was above 100 µM throughout.
Consider `CC(C)CCCC(C)[C@H]1CC[C@H]2n3c(nc4ccccc43)CCC[C@]12C` (some centres not stated), for which the TGI was found to be 33 µM in the experiment with MDA-MB-231 breast; 37.2 µM in the experiment on SR leukemia; 52.5 µM in the experiment on KM12 colon; 38.6 µM in the experiment on MDA-MB-435; 37.3 µM in the experiment with 786-0 renal; 32.4 µM with MDA-N. Moreover, the TGI was determined as 35.7 µM in the experiment on BT-549 breast and 63.8 µM with HS 578T breast.
As for `O=C(NC(Cc1ccc(Br)cc1)C(=O)O)c1ccc(I)cc1` (configuration not stated), the TGI in the experiment on NCI-H522 lung, in the experiment on KM12 colon, with DMS 114 small cell lung and with M19-MEL melanoma was above 100 µM throughout.
With `CCN(CC)CC[n+]1ccc2c(C)c3[nH]c4ccc(O)cc4c3c(C)c2c1`, the GI50 was 1.56 µM with NCI-H522 lung, 3.72 µM in the experiment on KM12 colon, 0.652 µM with DMS 114 small cell lung and 0.954 µM in the experiment with M19-MEL melanoma. The TGI in the experiment with NCI-H522 lung is 10.7 µM and 8.66 µM; with MDA-MB-231 breast, 36.6 µM; with SR leukemia it was 1.74 µM; in the experiment on KM12 colon, 20.1 µM and 17.6 µM; with MDA-MB-435, 23.1 µM; in the experiment with DMS 114 small cell lung, 8.87 µM and 15.4 µM. In addition, the TGI in the experiment with M19-MEL melanoma was 5.48 µM and 6.71 µM; with 786-0 renal, above 40.7 µM; with MDA-N, 25.7 µM; in the experiment with BT-549 breast, 34.3 µM; in the experiment with HS 578T breast, 15.8 µM.
Consider `CSc1nc(CO)c(CO)n1C`, for which the TGI in the experiment with NCI-H522 lung, in the experiment on KM12 colon, in the experiment on DMS 114 small cell lung and in the experiment with M19-MEL melanoma was above 100 µM each time.
For the molecule `CN(C)CCNC(=O)c1cc(Cl)cc2cc3ccccc3nc12`, the results for the TGI with KM12 colon, with DMS 114 small cell lung and in the experiment with M19-MEL melanoma were 10.1 µM, 2.21 µM and 3.56 µM, respectively.
In the case of `CCc1n[nH]c(=O)n1/N=C(\C)c1ccc([N+](=O)[O-])cc1`, the TGI in the experiment on MDA-MB-231 breast, in the experiment with KM12 colon, in the experiment with MDA-MB-435, in the experiment with 786-0 renal, with MDA-N and with BT-549 breast was above 100 µM each time. Further, the TGI in the experiment on HS 578T breast is above 100 µM.
On to `COc1cc(/C=C2\N=C(c3ccccc3)N(c3ccc(C(=O)c4ccccc4)cc3N3C(=O)/C(=C/c4ccc(O)c(OC)c4)N=C3c3ccccc3)C2=O)ccc1O`, for which the TGI in the experiment on MDA-MB-231 breast amounted to 43.8 µM; in the experiment with SR leukemia, 33.9 µM; in the experiment on KM12 colon it was 22.4 µM; with MDA-MB-435, 8.16 µM; with 786-0 renal, 61.2 µM; with MDA-N, 40 µM. In addition, the TGI is above 100 µM in the experiment on BT-549 breast and 46.6 µM with HS 578T breast.
For the molecule `OC[C@H]1NC[C@@H](O)[C@@H](O)[C@H]1O`, the TGI in the experiment on MDA-MB-231 breast, in the experiment on SR leukemia, with KM12 colon, with MDA-MB-435, in the experiment on MDA-N and with BT-549 breast was above 100 µM throughout. In the experiment with HS 578T breast, this molecule came in with a TGI above 100 µM.
`Cc1[nH]c(=O)[nH]c(=O)c1/C=C/C(=O)NC(CO)CS(=O)CS(C)=O` (configuration not stated): the TGI in the experiment with NCI-H522 lung was 32.3 µM; in the experiment on KM12 colon, above 92.1 µM; with DMS 114 small cell lung, 42 µM; with M19-MEL melanoma, 74.3 µM.
With `CCOC(=O)CCC(C(=O)OCC)n1nc2ccc(Nc3c(C)[n+]([O-])c4cc(F)c(OCC)cc4[n+]3[O-])cc2n1` (configuration not stated), the TGI with NCI-H522 lung was above 100 µM; in the experiment with SR leukemia, above 100 µM; in the experiment on KM12 colon it was above 100 µM; in the experiment with MDA-MB-435, above 100 µM; in the experiment with 786-0 renal, 71.5 µM; in the experiment with MDA-N it was above 100 µM. For the same molecule, the TGI in the experiment with BT-549 breast was above 100 µM; with HS 578T breast, 90.7 µM.
As to `Clc1cc(Cl)c2cc3cccc[n+]3cc2c1Cl`, the TGI is 48.9 µM in the experiment with MDA-MB-231 breast; 32.9 µM in the experiment on SR leukemia; 32.7 µM in the experiment on MDA-MB-435; 46.7 µM in the experiment on 786-0 renal; 32.8 µM in the experiment on MDA-N; 23.3 µM in the experiment with BT-549 breast. Further, the TGI in the experiment on HS 578T breast is 38.7 µM.
With `CC(C)(C)OC(=O)N1C(OP(=O)(Oc2ccccc2)Oc2ccccc2)=CSc2ccccc21`, the TGI is above 100 µM with NCI-H522 lung; 77.6 µM in the experiment on MDA-MB-231 breast; above 100 µM with SR leukemia; above 100 µM in the experiment with KM12 colon; above 100 µM with MDA-MB-435; above 100 µM with 786-0 renal. Further, the TGI with MDA-N, with BT-549 breast and with HS 578T breast was above 100 µM in each case.

The values above are taken from PubChem BioAssay (NCI).
